According to US20230346793A1, “Compositions and Methods for Treating SARS-CoV-2” (priority 2020, published 2023):

Key:
SARS-CoV-2 = experiment: microbe, parasite or virus in culture; type: cell-based; conditions: for EC50: Severe acute respiratory syndrome coronavirus 2, Vero C1008, in Primates, read-out: EC50 (effective concentration that gave half-maximal response), inhibition of SARS-CoV-2 infection; for inhibition of SARS-CoV-2 infection: VeroE6 plaque reduction assay, dose-dependent analysis
calmodulin = calmodulin (Homo sapiens, UniProt P0DP23); conditions: Winkler 1987; Zimmer and Hofmann 1984; Reiermann and Rüegg 1986; cited from earlier work

**Q.** For `CC(C)COCC(CN(Cc1ccccc1)c1ccccc1)N1CCCC1` (centres unmarked) [BPD, Bepridil], which EC50 (SARS-CoV-2) is on record?
**A.** The EC50 was 7.13 µM.

**Q.** And the “inhibition of SARS-CoV-2 infection” value (SARS-CoV-2)?
**A.** The value was “strong inhibition of SARS-CoV-2 infection in a dose-dependent manner”.

**Q.** What about the inhibition of calmodulin (calmodulin) of the same compound?
**A.** Its inhibition of calmodulin is “inhibit calmodulin”.

**Q.** With `CN1CCN(CCCN2c3ccccc3Sc3ccc(C(F)(F)F)cc32)CC1` [TFP, Trifluoperazine] as the compound, how does the EC50 (SARS-CoV-2) read?
**A.** Its EC50 is 7.7 µM.

**Q.** What about the “inhibition of SARS-CoV-2 infection” value (SARS-CoV-2) of the same compound?
**A.** The value was “potently inhibited SARS-CoV-2 infection in a dose-dependent fashion”.
